Experimental data taken from patent US9731052B2, “Methods for stepwise deposition of silk fibroin coatings” (TRUSTEES OF TUFTS COLLEGE, priority 2005, dated 2017).

What was measured:
[1] = Real-time adsorption of model compounds monitored by RQCM; assay type: physicochemical; conditions: in situ RQCM; for adsorption (saturation) that took place within the first 2 min: silk pre-coated gold electrode
From the text: (§1) This process was repeated according to the designated architectures in which the outmost layer was always silk layer. In this work, two different loading modalities were used in the release study for each compound, each with two different rinsing methods. UV-Vis absorbance spectra and a research quartz crystal microbalance (RQCM) were used for verifying the deposition.
The real-time adsorption of model compounds on silk pre-coated gold electrode surface was monitored using research quartz crystal microbalance (RQCM).

[2] = Compound release from multilayer silk coatings on glass slides in PBS; assay type: physicochemical; conditions: room temperature
From the text: as §1
The compound release from the multilayer coatings on glass microscope slides (25×75 mm on both sides) was investigated by incubating the slides in 5 ml PBS buffer solutions at room temperature with gentle shaking (60 rpm). At preset time intervals, 2 ml supernatant was sampled and 2 ml fresh PBS solution was then added to replenish the sample that was removed in order to maintain a constant volume. The supernatant was analyzed for the amount of released model compound using UV-vis spectroscopy for optical densities at a specific wavelength for each compound (562 nm for Rhodamine B, 609 nm for Even Blue, and 358 nm for Azoalbumin) and compared to a standard curve generated for each compound. The amount of released compound in each sample was summed with the amounts at each previous time point and divided by the total amount to obtain cumulative release value. Experiments were run in triplicates (n=3). Data in the graphs represent the average±standard deviation.

| Compound | adsorption (saturation) that took place within the first 2 min [1] [%] | adsorption on silk coating, compared with Even Blue [1] | initial burst, compared with Rhodamine B [2] |
| --- | --- | --- | --- |
| Azoalbumin: model molecule representing therapeutically relevant proteins | ~82 | – | – |
| CCN(CC)c1ccc2c(-c3ccccc3C(=O)O)c3ccc(=[N+](CC)CC)cc-3oc2c1 [Rhodamine B] | ~92 | higher adsorption | – |
| Cc1cc(-c2ccc(/N=N/c3ccc4c(S(=O)(=O)[O-])cc(S(=O)(=O)[O-])c(N)c4c3O)c(C)c2)ccc1/N=N/c1ccc2c(S(=O)(=O)[O-])cc(S(=O)(=O)[O-])c(N)c2c1O.[Na+].[Na+].[Na+].[Na+] [Even Blue] | ~92 | – | no noticeable difference |
